Source: US20210386828A1, “METHODS FOR ENHANCING CANCER IMMUNOTHERAPY” (The Regents of the University of California, priority 2018, published 2021)

Key:
Myc-CaP cells [1] = test: Immunoblot of IRF1 and phosphorylated STAT1; type: cell-based, mouse; settings: for IRF1 expression: Oxali at 2 μM
Excerpt: Protein loading was confirmed with tubulin antibodies.
The basis for the synergy between low-dose Oxali and IFNγ was investigated. […] Given the ability of Oxali to induce Ifngr2 mRNA expression, not only in Myc-CaP cells (FIG. 2D) but also in mouse and human melanoma cell lines (FIGS. 11C and 11D), it was postulated that the synergistic activation of IRF1 and STAT1 by Oxali plus IFNγ may be due to IFNγR2 induction.

Myc-CaP cells [2] = test: Stress, DNA damage and type I IFN responses (IB, qRT-PCR)
Excerpt: CRISPR-Cas9 was used to ablate cyclic GMP-AMP synthase (cGAS, encoded by Mb21d1) and Ifnar2 (FIG. 11K).

MC-38 cells = test: Mass spectrometry peptidomic profiling of H-2Kb and H-2Db bound peptides; type: cell-based, mouse; settings: H-2Db experiment
Procedure: Tubulin was used as loading control.
To confirm the ability of Oxali to potentiate antigen presentation, mass spectrometry-based peptidomic profiling of H-2Kb and H-2Db molecules isolated from MC-38 cells was conducted.

p300/CBP = test: p300 immunoblot and imaging; type: cell-based, mouse
Myc-CaP cells [3] = test: ATAC-seq of chromatin accessibility; type: cell-based, mouse; settings: for accessibility of transcription factor binding sites at the Nfkb1 locus: 2 μM Oxali, 1 ng/mL IFNγ
Excerpt: FIGS. 4A-4D are pictorial and graphical diagrams showing low dose Oxali alters chromatin accessibility of MHC-I related genes. […] The Venn diagram compares gene expression between untreated and differently treated cells (left). The heat map depicts differentially expressed genes involved in the indicated pathways (right). […] The Venn diagram presents the number of binding site changes and overlaps after each treatment (left). FIGS. 4C-4D show detailed ATAC seq analyses of the Nfkb1 gene (FIG. 4C) and a mouse Chr17 gene cluster containing Psmb8, Psmb9, Tap1 and Tap2 (FIG. 4D). Changes in transcription factor (TF) binding site accessibility are compared to RNA seq results. The affected TF binding sites are depicted below each panel.
FIGS. 12A-12C are pictorial and graphical diagrams showing that low dose Oxali enhances chromatin accessibility of MHC-I related genes.
To better understand the transcriptional mechanisms underlying the response to Oxali, RNA-seq and ATAC-seq analyses were conducted on Myc-CaP cells that were incubated with either 2 μM Oxali, 1 ng/mL IFNγ, or a combination of the two. By coupling ATAC-seq, a method for assessing transcription factor binding site accessibility (Buenrostro et al., 2015), with RNA-seq, transcription factor loading can be correlated with actual transcriptional changes.
Of note, the NF-κB pathway, represented by the Nfkb1 gene, was stimulated by Oxali but not IFNγ. […] To examine activation of the antigen processing and presentation pathway, a gene cluster on mouse chromosome 17 harboring Psmb9, Tap1, Psmb8, and Tap2 was analyzed. […] However, IFNγ further enhanced transcription factor accessibility in Oxali-treated cells (FIG. 4D), an effect that was consistent with the transcriptomic analysis (FIG. 4A). […] Similarly, the Erap1 locus, which is induced by both Oxali and IFNγ, was made more accessible by Oxali relative to IFNγ treatment (FIG. 12C). […] The addition of IFNγ expanded this response to include E2F6, JUNB, HIF-lb, KLF3, and DMRT6 binding sites. Of note, the chromosome 17 MHC-I region opened by Oxali contained recognition sites for BORIS and CTCF, two general transcription factors responsible for chromatin opening (Li et al., 2012).

Myc-CaP cells [4] = test: qRT-PCR of MHC-I component mRNAs in Myc-CaP cells; type: cell-based, mouse
Excerpt: (§1) Each dot represents an experiment and horizontal lines denote the median.

[5] = system: bone marrow (BM)-derived macrophages; test: Bone marrow derived macrophages, qRT-PCR and flow cytometry; type: cell-based, mouse
[6] = Cell death in vitro at the low Oxali dose; type: cell-based; settings: Oxali dose used in the experiments (low dose)
Excerpt: Thus, for purposed of this disclosure, the term “low dose” may include a non-ICD amount of a cytostatic agent or a platinoid.
In the past, Oxali was studied as a prototype of anticancer drugs that are capable of inducing immunogenic cell death (ICD) and T-cell priming (Galluzzi et al., 2015). However, the exact mechanism of ICD induction is poorly defined, and it is not clear whether Oxali and similar drugs exert their immunogenic activity solely via ICD. Other studies have reported Oxali and several other platinoids to function as inducers of the integrated stress response (ISR) (Bruno et al., 2017; Kepp et al., 2015). Nevertheless, the mechanism of ISR activation by platinoids and its relevance for their immunostimulatory activity is unknown. […] Oxali treatment also results in induction of Interferon gamma receptor 2 (IFNγR2), through NF-κB signaling, which potentiates the response of MHC-I-expressing cancer cells to IFNγ produced by CD8^+ T cells that have been reinvigorated by ICI administration.

[7] = system: PC3, WM793, MIA PaCa-2, NSCLC and melanoma cell lines
Procedure: The stained cells were examined by indirect immunofluorescence. […] Surface HLA-ABC expression was determined by flow cytometry.

[8] = system: histone acetyltransferase (HAT); test: HAT activity in lysates of treated cells
[9] = system: Ifngr2, Tap1 and Psmb8 promoters; test: ChIP analysis of promoters
LMP7 (PSMB8) = test: Lysate LMP7 (PSMB8) immunoproteasome activity with specific fluorogenic peptide substrate; type: cell-based, mouse; settings: low-dose
Procedure: Lysate LMP7 (PSMB8) immunoproteasome activity was measured using LMP7 (PSMB8) specific fluorogenic peptide substrate. […] Each dot is a single experiment and horizontal lines are the medians.

[10] = system: Myc-CaP and TRAMP-C2 cells; test: RNA-seq of mouse PCa cells incubated with platinoids; type: cell-based
Procedure: FIGS. 1E-1G show total RNA from Myc-CaP cells incubated with indicated agents for 24 hr was subjected to RNA-seq. Top 20 hallmark gene sets were sorted by normalized enrichment score (NES). Immune-related gene sets are in blue (IFNγ signaling in light blue).
The top 20 hallmark gene sets sorted by normalized enrichment score (NES) are shown to depict the Oxali- and Cis-induced responses determined by GSEA analysis. Immune-related gene sets are colored blue (IFNγ signaling in light blue). […] Immune-related gene sets are in blue (IFNγ signaling in light blue).
To investigate how low-dose Oxali affects the PCa transcriptome, RNA sequencing (RNA-seq) was conducted on mouse PCa cells (Myc-CaP and TRAMP-C2) incubated with 2 μM of either Oxali or Cisplatin (Cis), a platinoid that, unlike Oxali, minimally enhances the response to PD-L1 blockade or ISP ablation (Pfirschke et al., 2016; Shalapour et al., 2015).

Myc-CaP and TRC2 cells = test: Immunoblot of immunoproteasome subunits PSMB8 and PSMB9; settings: low-dose
Myc-CaP cells [11] = test: Nuclear abundance of transcription factors (IB, flow cytometry); type: cell-based, mouse; settings: 2 μM Oxali
Myc-CaP cells [12] = test: Surface MHC (H-2Kq) expression by flow cytometry; type: cell-based, mouse; settings: for surface expression of H-2Kq: agent as named
Excerpt: as §1

[13] = system: TRC2 cells expressing ovalbumin variants; settings: Oxali-treated TRC2-N4 cells with OT-I CD8+ T cells
Procedure: FIGS. 2J-2L show TRC2 cells stable transfected with vectors expressing high, medium, and low affinity variants of Ovalbumin were incubated with 4 μM Oxali and/or CFSE-labeled OT-I cells for 72 hr and analyzed by flow cytometry using an antibody that recognizes [sequence] (SEQ ID NO: 24) bound to H-2Kb (FIG. 2J). The number of OT-I cells in each culture (FIG. 2K) and percentage of vital TRC2 cells (FIG. 2L) were determined by flow cytometry.

HDACs = test: HDAC enzyme activity in extracts of treated cells; settings: after 6 hours
s.c. Myc-CaP tumors = test: qRT-PCR of total tumor RNA from treated mice; type: in vivo, mouse; settings: low-dose
Procedure: (§2) FIGS. 7A-7G are pictorial and graphical diagrams showing that IFNγR2 induction is needed for the Oxali-potentiated response to anti-PDL1 therapy. […] After four treatment cycles, during which tumor size was measured, the mice were euthanized and analyzed. Significance was determined by Mann-Whitney and t-tests. Transient Cas9 expression was used to avoid any immune response to Cas9-molecules.
The synergistic inhibition of Myc-CaP tumor growth by Oxali+anti-PD-L1 was attenuated by IFNγR2 ablation (FIGS. 7A and 14E). […] Importantly, Psmb9, Tap1, and Nlrc5 induction by Oxali+anti-PD-L1 was almost completely abolished after IFNγR2 ablation in Myc-CaP cells (FIGS. 7C and 14F). Oxali+anti-PD-L1 induced MHC-I (H-2Kq and H-2Dd) surface expression by tumor cells, which was also abolished by IFNγR2 ablation (FIG. 7D). Oxali+anti-PD-L1 had no effect on surface MHC-I (H-2Kq) or PD-L1 expression by tumor-infiltrating CD11b^+ myeloid cells in vivo (FIGS. 14G and 14H). […] Thus, Oxali-induced upregulation of MHC-I genes in malignant cells is important for the final recognition and killing stage of the cancer-immunity cycle (Chen and Mellman, 2013) but has no role in ICI-induced CTL reinvigoration.

[14] = system: s.c. Myc-CaP, B16 or YUMM1.7 tumors; test: Growth of subcutaneous tumors in mice under weekly Oxali and/or anti-PD-L1; type: in vivo, mouse
Procedure: as §2
FIGS. 14A-14J are graphical diagrams showing that IFNγR2 expression is needed for platinoid-enhanced anti-PD-L1 responsiveness. […] After three cycles, the mice were euthanized, and tumor volume was determined. Significance was determined by t-tests (n=3). […] Tumor volume was determined using caliper. After three treatment cycles, the mice were euthanized and analyzed. Significance was determined by t-tests. Dots show averages and the brackets indicate±SEM (n=3). […] Each dot represents a mouse and each horizontal line indicates mean±SEM. […] Transient Cas9 expression was used to avoid any immune response to Cas9. Tumor growth was monitored using a caliper and analyzed using t-test. Each dot represents average and the brackets are SEM (n=3-5). […] Each dot represents a mouse and each horizontal line indicates the median.
The synergistic inhibition of Myc-CaP tumor growth by Oxali+anti-PD-L1 was attenuated by IFNγR2 ablation (FIGS. 7A and 14E). […]

IFNγ: exogenous interferon gamma
IRF1 expression (Myc-CaP cells [1]): weak IRF1 induction | eIF2α phosphorylation and CHOP expression (Myc-CaP cells [2]): no effect | amounts of H-2Db MHC-I-bound peptides (MC-38 cells): higher amounts of MHC-I-bound peptides than Oxali treated cells | nuclear foci / nucleolar localization of p300 (p300/CBP; high resolution imaging): not | transcription factor accessibility of chromosome 17 cluster Psmb9, Tap1, Psmb8, Tap2 (Myc-CaP cells [3]): barely affected | accessibility of transcription factor binding sites at the Nfkb1 locus (Myc-CaP cells [3]): barely had any effect | effect on MHC-I genes compared with low-dose Oxali (Myc-CaP cells [4]; IFNγ at 200 pg/mL, Myc-CaP and other cell lines): weaker than the effect of low-dose (2 μM) Oxali | Ifngr2 mRNA (Myc-CaP cells [4]; IFNγ on its own, any of the analyzed cell lines): did not induce

O=C1[O][Pt]2([NH][C@@H]3CCCC[C@H]3[NH]2)[O]C1=O [Oxali, oxaliplatin]
MHC-I machinery component expression [5]: upregulated | MHC-II surface expression ([5]; Oxali alone): did not respond to Oxali alone | MHC-II expression in macrophages co-stimulated with IFNγ ([5]; plus IFNγ): potentiated MHC-II expression | cell death in vitro [6]: 10-15% | HLA-ABC surface expression ([7]; MIA PaCa-2 cells): induced HLA-ABC surface expression | Psmb9 and Ifngr2 induction, BRAF (V600E) versus activated NRAS melanoma cells ([7]; panel of human melanoma cell lines): much more responsive | increase in nuclear HAT activity ([8]; after 3 hr of Oxali addition): 4 fold | HAT enzymatic activity ([8]; within 3 hr): increased | H3 acetylation (Lysine 14 and 27) of Psmb8 promotor region [9]: increased H3 acetylation | immunoproteasome activity, hydrolysis of LMP7 (PSMB8)-specific substrate (LMP7 (PSMB8)): stimulated | induction of gene set responsive to NF-κB-dependent TNF signaling ([10]; 2 μM, Myc-CaP): strongly induced | induction of IFNγ responsive gene set ([10]; 2 μM, compared with Cis): considerably stronger induction | induction of genes of the MHC-I antigen processing and presentation machinery ([10]; low-dose, Myc-CaP): strongly induced | PSMB8 and PSMB9 protein expression (Myc-CaP and TRC2 cells): induced | IRF1 expression (Myc-CaP cells [1]): induced | effect on IRF1 induction by IFNγ (Myc-CaP cells [1]; added to IFNγ): strongly potentiated | STAT1 phosphorylation (Myc-CaP cells [1]; added to IFNγ-treated cells): dramatically increased | eIF2α phosphorylation and CHOP expression (Myc-CaP cells [2]): induced | γH2AX, marker of DNA damage (Myc-CaP cells [2]): γH2AX induction | Ifna, Ifnb and IL1b expression (Myc-CaP cells [2]; 48 hr): increased | nuclear abundance of p65, NF-κB, CREB1, ATF3, P-ATM and JunB (Myc-CaP cells [11]): persistent increases | nuclear amount of p300 and acetylated p300/CBP (p300/CBP; Myc-CaP cells): enhanced the nuclear expression and acetylation of p300/CBP | surface expression of H-2Kq (Myc-CaP cells [12]): induced surface expression of H-2Kq | OT-I T-cell activation and tumor cell killing [13]: led to T-cell activation, resulting in tumor cell killing | effect on HDACs in cytoplasm (HDACs): inhibitory effect | expression of Ifngr2, Psmb9, Tap1, and Nlrc5 mRNAs in tumors (s.c. Myc-CaP tumors): enhanced expression | transcription factor accessibility of chromosome 17 cluster Psmb9, Tap1, Psmb8, Tap2 (Myc-CaP cells [3]): increased transcription factor accessibility | accessibility of transcription factor binding sites at the Nfkb1 locus (Myc-CaP cells [3]): increased accessibility | subcutaneous (s.c.) tumor growth ([14]; Myc-CaP, B16, or YUMM1.7, weekly treatment): little effect | tumor regression in vivo ([14]; low-dose Oxali alone, mouse models of PCa): did not cause tumor regression in vivo | induction of Nlrc5, Psmb9, Tap1, Ifngr2, Tapasin, and Erap1 mRNAs (Myc-CaP cells [4]; 2 μM (Oxali and Cis) or 4 μM (Carbo), among the three platinoids): most efficient induction | Ifngr2 gene expression (Myc-CaP cells [4]; Myc-CaP cells): induced | effect of exogenous IFNγ on induction of MHC-I antigen presentation and processing genes by the platinoid (Myc-CaP cells [4]; plus IFNγ): strongly potentiated by exogenous IFNγ

Cc1[nH]c2ccccc2c1CCNCc1ccc(/C=C/C(=O)NO)cc1 [Panabinostat]
surface H-2Kq expression on addition of low dose Oxali (Myc-CaP cells [12]; Panabinostat plus low dose Oxali): potentiated | surface expression of H-2Kq (Myc-CaP cells [12]): induced | transcriptional response (MHC-I gene induction) compared with low dose Oxali (Myc-CaP cells [4]; HDAC inhibitor): nearly the same transcriptional response as low dose Oxali | Tap1, Nlrc5, Tapasin, Lmp2, and Ifngr2 mRNAs (Myc-CaP cells [4]; dose that did not induce cell death): induced
